For test [1], the system named is A549 lung carcinoma cells. Nature of the test: Cytoskeleton staining and confocal microscope: cell elongation. It counts as cell-based, human. Here is the method: (§1) The cells were cultured on coverslips kept in a p60 Petri dish, and the coverslips were kept in a CO2 incubator for 16-20 hours. After being treated with or without PT-262, the cells were fixed in 4% parafomaldehyde solution for 60 minutes at 37° C. Then the coverslips were washed three times with PBS. The F-actin and β-tubulin were stained with 20 U/ml BODIPY FL phallacidin and anti-β-tubulin Cy3 for 30 minutes at 37° C., respectively. Finally, the nuclei were stained with 2.5 ug/ml Hoechst 33258 for 30 minutes. And the cells were added with 80% Glycerin and sealed with nail varnish. The samples were examined under a Leica confocal laser scanning microscope.

Test [2] has as its system Microtubule. In words: Cytoskeleton staining and confocal microscope: microtubule (β-tubulin). It counts as cell-based, human. The note with it: for red fluorescence intensity of β-tubulin: A549, 50 nM, 24 hours; for microtubule polymerization: comparison of cytoskeleton inhibitors. Here is the method: as §1
Test [3] has as its system F-actin. Nature of the test: Cytoskeleton staining and confocal microscope: actin filament (F-actin). It counts as cell-based, human. Here is the method:
as §1

The subject of test [4] is Hela cervical carcinoma cells. In words: MTT assay (cytotoxicity). It counts as cell-based, human. Here is the method: (§2) The A549 cell line was derived from lung carcinoma of a person. The H1299 cell line has a homozygous deletion of the P53 gene that was derived from a non-small cell lung adenocarcinoma tumor. MCF-7 cell line was derived from breast adenocarcinoma of a person. Hela cell line was derived from cervical carcinoma of a person. These cell lines are cultured in RPMI-1640 medium supplemented with 10% fetal bovine serum, 100 units/ml penicillin, 100 ug/ml streptomycin, and L-glutamine (0.03%, w/v), and cells were incubated at 37° C. and 5% CO2.
(§3) Briefly, the cells were plated in 96-well plates at a density of 1×10^4 cells/well for 16-20 hours. Then the cells were treated with pt-262 for 24 hours in serum-free RPMI-1640 medium. After drug treatment, the cells were washed with phosphate-buffered saline (PBS), and were re-cultured in complete RPMI-1640 medium for 48 hours. Subsequently, the medium was replaced and the cells were incubated with 500 ug/ml MTT in complete RPMI-1640 medium for 4 hours. The surviving cells were dissolved in DMSO after removing the MTT medium, and was measured at 565 nm using a ELISA reader.
On the technique in general: Formazan colour is commonly taken as a measure of viable cells.

The test system of test [5] is MCF-7 breast carcinoma cells. Nature of the test: MTT assay (cytotoxicity). It counts as cell-based, human. The method, then:
as §2, §3

In test [6] the test system is A549 lung carcinoma cells. Nature of the test: Cell cycle analysis (flow cytometer). It counts as cell-based, human. As to conditions: 24 hours. The method, then: as §2
(§4) The cells were plated at a density of 1×10^6 cells per p60 dish for 16-20 hours. Then the cells were treated with PT-262 for 24 hours. After drug treatment, the cells were washed with PBS and re-treated with trypsin, the cells were suspended and collected in a 15 ml centrifuge tube. After centrifugation at 1500 rpm for 5 minutes, the cells were fixed with 70% ethanol and stored at −20° C. for at least 2 hours. After being re-centrifuged at 1500 rpm for 5 minutes, the cell pellets were incubated with 4 ug/ml propidium iodine solution containing 1% Triton X-100 and 100 ug/ml RNase A for 30 minutes. The cell cycle was then analyzed by flow cytometer, and the percentage of cell cycle was quantified by ModFit Lt software (Ver. 2.0).

The subject of test [7] is A549 lung carcinoma cells. In words: Cell growth assay. It counts as cell-based, human. The note with it: 24 hours. Here is the method: as §2
The cells were plated at a density of 5×10^5 cells per p100 Petri dish for 16-20 hours. Then the cells were treated with PT-262 of different concentrations for 24 hours. After drug treatment, the cells were washed with PBS and re-treated with trypsin, the cells were suspended and were counted by a hemocytometer.

The subject of test [8] is Ras. In words: Western blot. It counts as cell-based. As to conditions: cancer cells; after treatment with PT-262. Here is the method:
(§5) At the end of treatment, the cells were lysed in the cell extract buffer containing the protease inhibitors. Amounts of proteins in samples were subjected to electrophoresis using 10-12 sodium dodecyl sulfate-polyacrylamide gels. After electrophoretic transfer of proteins onto polyvinylidene difluoride (PVDF) membranes, the membranes were dipped in 5% degreased milk containing first antibody for 24 hours at 4° C. After being washed three times with TTBS buffer solution for 5-15 minutes at room temperature, the PVDF membranes are dipped in 5% degreased milk containing second antibody for 1-2 hours at room temperature. And then the membranes were re-washed three times with TTBS buffer solution for 5-15 minutes at room temperature. Finally, the protein bands were visualized using the enhanced chemiluminescence detection system.
In general terms: In western blotting, separated proteins are transferred to a membrane and probed.

The test system of test [9] is phospho-ERK. In words: Western blot. It counts as cell-based. As to conditions: cancer cells; after treatment with PT-262. Here is the method:
as §5

In test [10] the test system is caspase-3. In words: Western blot. It counts as cell-based. As to conditions: cancer cells. Here is the method:
as §5

Test [11] deals with phospho-cdc2. Nature of the test: Western blot. It counts as cell-based. The note with it: cancer cells; 5-20 uM, 24 hours. Here is the method:
as §5

The test system of test [12] is cyclin B1. In words: Western blot. It counts as cell-based. The note with it: cancer cells; 5-20 uM, 24 hours. Here is the method: as §5
In test [13] the test system is H1299 cells. Nature of the test: Cell cycle analysis (flow cytometer). As to conditions: 24 hours. It counts as cell-based. Here is the method:
as §2, §4
(In general: Flow cytometry measures light scatter and fluorescence of single cells or particles in a stream.)

The subject of test [14] is human A549 lung carcinoma cells. In words: MTT assay (cytotoxicity). It counts as cell-based. Here is the method: as §2, §3
For test [15], the system named is A549 lung carcinoma cells. In words: Mitochondrial membrane potential (DiOC6, flow cytometer). As to conditions: as the drug concentration increased, 24 hours. It counts as cell-based, human. The method, then:
The cells were cultured in 60-mm Petri dish at a density of 5×10^5 cells. Then the cells were treated with PT-262 of different concentrations for 24 hours. After drug treatment, the cells were washed with PBS and were trypsinized, the cells were suspended and were counted by a hemocytometer. The cells were collected by centrifugation, and the pellets were resuspended in 70% ethanol and stored at […]20° C. for at least 2 hours. After centrifugation, the pelts were incubated with 0.5 uM DiOC6 for 30 minutes. Then cell pellets were collected by centrifugation and resuspended in 0.5 ml ice-cold PBS. Finally, fluorescence intensities of DiOC6 were analyzed on a flow cytometer.

The subject of test [16] is terminal cancer patients. The note with it: cited from earlier work.
Setting [17] is: lung carcinoma cells, comparison of cytoskeleton inhibitors.
Where [18] appears, read: comparison of cytoskeleton inhibitors.
[19] abbreviates: Homo sapiens, treatment for 24 hours, at cell viability of 50%.

Starred links: 1 amine or outer side, 2 acyl side, 3 side chain; linkers in the order of their positions; H or OH if unused. Positions of bridges follow the written chain, without caps; N, C: chain ends. Non-standard residues stand in square brackets, D forms with d. Residues, ends and D or L forms follow the SMILES beside them. Trp(2-yl) = O=C([C@H](Cc1c([*:3])[nH]c2ccccc12)N[*:1])[*:2]; Leu(4R-OH,5-OH) = C[C@](O)(CO)C[C@H](N)C(=O)O; cisHyp = O=C(O)[C@@H]1C[C@H](O)CN1

Consider `COc1cc2c(c(OC)c1OC)-c1ccc(OC)c(=O)cc1[C@@H](NC(C)=O)CC2` [colchichine], for which the cell elongation result in test [1] (setting [17]) is “didn't induce”. For the same compound, in [2], the “red fluorescence intensity of β-tubulin” value was “reduced” and the microtubule polymerization result was “inhibiting”.

On to `C=C1[C@@H](C)[C@H]2[C@H](Cc3ccccc3)NC(=O)[C@]23OC(=O)/C=C/[C@H](O)CCC[C@@H](C)C/C=C/[C@H]3[C@@H]1O` [cytochalasin B, reference compound], for which, in test [1] (setting [17]), the cell elongation result is “didn't induce”. In addition, in [3] (setting [18]), the actin polymerization result is “prevented”.

As to `O=C1C(N2CCCCC2)=C(Cl)C(=O)c2ncccc21` [PT-262, 7-chloro-6-piperidin-1-yl-quinoline-5,8-dione], the cell survival ratio result was “decreased as the concentration increased” in [4] (1-10 uM, 24 hours); “decreased as the concentration increased” in test [5] (1-10 uM, 24 hours); “decreased as the concentration increased” in [14] (1-10 uM, 24 hours). Besides, the IC50 (usually the midpoint of a concentration-inhibition curve) in test [4] (setting [19]) was 2 to 4 µM; in test [5] (Homo sapiens, MCF7, treatment for 24 hours, at cell viability of 50%) it was 2 to 4 µM; in test [14] (setting [19]), 2 to 4 µM. Further, the G0/G1 fractions entry in test [6] and in test [13] was “decreased” in each case. Further, the G2/M fractions entry in [6] and in [13] was “increased” in each case. The growth arrest result in [7] (10 uM) was “almost completely induced”. Further, in test [7] (5-10 uM), the cell growth result is “concentration-dependently inhibited”. For the same compound, the “expression level of Ras” value in test [8] is “decreased”. Further, in test [9], the “expression level of phospho-ERK” value is on record as “decreased”. Moreover, the caspase-3 activation result in [10] is on record as “noticeably induced”. In addition, the “levels of phospho-cdc2 protein” value in [11] is reported as “noticeably decreased”. For the same compound, in [12], the “levels of cyclin B1 protein” value is “noticeably decreased”. Further, the cell elongation entry in test [1] (A549, 2 uM) was “induced”; in [1] (setting [17]), “increased”. Moreover, in test [1] (A549, Leica confocal software), the “cell length of some cells” value was 160 um. The compound also displayed an average cell length in [1] (A549, untreated 39.2 um, Leica confocal software) of 65.3 um. The F-actin polymerization entry in [3] (A549, 2 uM) is reported as “induced”. The actin polymerization entry in [3] (setting [18]) is reported as “induction”. Moreover, in test [15], the Mitochondrial membrane potential entry is “noticeably inhibited”.

For `C[C@@H]1NC(=O)[C@H](C[C@@](C)(O)CO)NC(=O)[C@@H]2Cc3c([nH]c4ccccc34)SC[C@H](NC(=O)[C@@H]([C@H](C)O)NC1=O)C(=O)N1C[C@@H](O)C[C@H]1C(=O)N[C@@H](C)C(=O)N2` [phalloidin] (cyclo(A[dT]C[cisHyp]A[Trp(2-yl)][Leu(4R-OH,5-OH)]); thioether 3-6), the cell elongation entry in [1] (A549, 24 hours) is listed as “caused the cell elongation”. Moreover, the “green fluorescence intensity of F-actin” value in test [3] (A549, 24 hours) was “increased”. The actin depolymerization entry in test [3] (setting [18]) is reported as “inhibit”.

Consider `CC(=O)O[C@H]1C(=O)[C@@]2(C)[C@H]([C@H](OC(=O)c3ccccc3)[C@]3(O)C[C@H](OC(=O)[C@H](O)[C@@H](NC(=O)c4ccccc4)c4ccccc4)C(C)=C1C3(C)C)[C@]1(OC(C)=O)CO[C@@H]1C[C@@H]2O` [paclitaxel], for which the cell elongation entry in test [1] (setting [17]) is reported as “didn't induce”. In test [2], the “red fluorescence intensity of β-tubulin” value is on record as “increased” and the microtubule polymerization entry was “induced”. For the same compound, the suppression rate in test [16] (40 terminal cancer patients) is 30%. Also, in [16] (of 40 terminal cancer patients), the “patients reduced in tumor size by over 50%” value was 12.

The values are drawn from patent US20100093794A1, “Use of a Compound in Obtaining Cytoskeleton Blockage and Cell Elongation” (priority 2006, published 2010).
